Reference: patent publication US20050255163A1, “Co-grinding process for the preparation of a ternary composition” (priority 2002, published 2005)
≈ marks a conversion by molar mass, not a printed value.

Assays:
Assay type in all cases: physicochemical
[1] = DSC enthalpy of fusion and percentage residual crystallinity of co-ground compositions; settings: enthalpy of fusion of the active substance as such, before co-grinding
Text: The compositions obtained by operating according to the examples reported below have been characterised by DSC and from the enthalpy of fusion the percentage residual crystallinity has been calculated.

[2] = Percentage of active substance released under sink conditions (dissolution speed)
Experimental: In FIGS. 5 and 6 are reported respectively the dissolution speed curves under sink conditions (% age of active substance released against time) and the to solubilisation kinetics curves under non sink conditions (concentration of active substance against time) of a hydrophobic drug (DHEA)/hydrophilic carrier combination. The dissolution speed of the DHEA from the ternary composition is markedly greater with respect to that of the DHEA as such, reaching 70% release after 15 minutes and 90% after 60 minutes, against the respective 9% and 20% for DHEA as such. Regarding the kinetics, in the ternary composition, the oversaturation reached by DHEA, which reaches a concentration of over 80 μg/ml in 2 minutes against around 50 μg/ml of DHEA as such, is evident.
(§1) Furthermore, the percentage of active substance released under sink conditions and the solubilisation kinetics under non sink conditions have been determined.

[3] = Solubilisation kinetics under non sink conditions; settings: thermodynamic from solid, in 2 minutes, read-out: concentration of DHEA reached (solubilisation kinetics, oversaturation)
Experimental: The dissolution speed of the DHEA from the ternary composition is markedly greater with respect to that of the DHEA as such, reaching 70% release after 15 minutes and 90% after 60 minutes, against the respective 9% and 20% for DHEA as such. Regarding the kinetics, in the ternary composition, the oversaturation reached by DHEA, which reaches a concentration of over 80 μg/ml in 2 minutes against around 50 μg/ml of DHEA as such, is evident.
as §1

Row | SMILES | Active Substance Enthalpy [1] [J/g] | percentage of active substance (DHEA) released ([2]; after 15 minutes) [%] | percentage of active substance (DHEA) released ([2]; after 60 minutes) [%] | solubility kinetic at 2 min [3] [µg/mL]
1 | C[C@]12CC[C@H](O)CC1=CC[C@@H]1[C@@H]2CC[C@]2(C)C(=O)CC[C@@H]12 [DHEA, dehydroepiandrosterone] | 100 | 9 | 20 | ~50 (≈ 173 µM)
2 | CC(=O)OCC(=O)[C@@]1(O)CC[C@H]2[C@@H]3CCC4=CC(=O)CC[C@]4(C)[C@H]3[C@@H](O)C[C@@]21C [HCA, hydrocortisone acetate] | 117.9 | – | – | –
3 | CC(=O)N[C@@H](CS)C(=O)O [NAC, N-acetyl cystein] | 192.9 | – | – | –
4 | Oc1ccc(C=Cc2cc(O)cc(O)c2)cc1 [Resveratrol, resveratrol] | 317.7 | – | – | –
5 | Cc1cc(O)c(C2CC3CCC2(C)C3(C)C)cc1C (centres unmarked) [Xibornol, xibornol] | 92.8 | – | – | –
